According to article PMC10607100, “Anticancer and Antiphytopathogenic Activity of Fluorinated Isatins and Their Water-Soluble Hydrazone Derivatives” (International Journal of Molecular Sciences, 2023):
Read-outs that look alike come from different tables or passages of the source.

Tests used:
[1] = test system: Xanthomonas campestris B-610; assay: Agar-well diffusion, bactericidal activity; format: cell-based; details: Xanthomonas campestris
How it was run: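 Agar-well diffusion on GYCa agar (pH 7.2–7.4) seeded with bacterial suspension; 150 μL compound solution placed in 6-mm wells. Inhibition zone width measured after 36–40 h incubation.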

[2] = test system: five representative phytopathogens; assay: Agar-well diffusion, bactericidal activity over the panel of phytopathogens; format: cell-based
How it was run: (§1)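 Bacteria spread on agar (BP medium; GYCa for X. campestris; pH 7.2–7.4) with 6-mm wells, each receiving 150 μL compound solution. Cultures grown at 28 °C; growth-inhibition zone width measured after 36–40 h.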

[3] = test system: Pectobacterium atrosepticum 1043; assay: Agar-well diffusion, bactericidal activity; format: cell-based; details: Pectobacterium atrosepticum, 1043, 2 mM/L
How it was run: as §1

[4] = test system: Pectobacterium carotovorum subsp. carotovorum MI; assay: Agar-well diffusion, bactericidal activity; format: cell-based; details: Pectobacterium carotovorum, 2 mM/L
How it was run: as §1

[5] = test system: Pseudomonas fluorescens EL-2.1; assay: Agar-well diffusion, bactericidal activity; format: cell-based; details: Pseudomonas fluorescens, EL2.1, 2 mM/L
How it was run: as §1

Micrococcus luteus B-109 = assay: Agar-well diffusion, bactericidal activity; format: cell-based; details: Micrococcus luteus
How it was run: as §1

[6] = test system: Phytophthora cactorum VKM F-985; assay: Mycelial radial growth inhibition; format: cell-based; details: Phytophthora cactorum; for inhibition of growth at 1 µM: 1 nmol/mL; for inhibition of growth at 1 µM / inhibition of growth at 5 µM / inhibition of growth at 15 µM / inhibition of growth / inhibition of growth at 40 µM: read-out: Inhibition value, I (%); for inhibition of growth at 5 µM: 5 nmol/mL; for inhibition of growth at 15 µM: 15 nmol/mL; for inhibition of growth: 27 nmol/mL; for inhibition of growth at 40 µM: 40 nmol/mL
How it was run: (§2)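 Compounds mixed into molten GPY agar at various concentrations; centre inoculated with a 5-mm mycelial plug from 10-day cultures and incubated at 27 °C. Colony diameter compared with untreated control until control plate was covered (usually 12 days); ≥4 replicates in two experiments.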

[7] = test system: Fusarium oxysporum IBPPM 543; assay: Mycelial radial growth inhibition; format: cell-based; details: Fusarium oxysporum; for inhibition of growth at 1 µM: 1 nmol/mL; for inhibition of growth at 1 µM / inhibition of growth at 5 µM / inhibition of growth at 20 µM / inhibition of growth at 40 µM: read-out: Inhibition value, I (%); for inhibition of growth at 5 µM: 5 nmol/mL; for inhibition of growth at 20 µM: 20 nmol/mL; for inhibition of growth at 40 µM: 40 nmol/mL
How it was run: as §2

[8] = Table S3, read-out: Inhibition zone width (mm), not less
[9] = 120 h, age of the fungus 5 days
[10] = 168 h, age of the fungus 7 days
[11] = 216 h, age of the fungus 9 days
[12] = IBPPM543, 72 h, age of the fungus 3 days
[13] = IBPPM543, 120 h, age of the fungus 5 days
[14] = IBPPM543, 168 h, age of the fungus 7 days
[15] = IBPPM543, 216 h, age of the fungus 9 days

`O=C(C[n+]1ccccc1)NN=C1C(=O)N(Cc2c(F)cccc2Cl)c2ccc(F)cc21.[Cl-]` [Compound 5b, 1-(2-(2-(5-Fluoro-1-(6-chloro-2-fluorobenzyl)-2-oxoindolin-3-ylidene)hydrazinyl)-2-oxoethyl)pyridin-1-ium chloride] gave a zone of inhibition at 2000 µM ([1]; B610, 2 mM/L, average of 3 experiments, read-out: width of the inhibition zone (mm), X. campestris) of 3 mm, a zone of inhibition at 2000 µM ([1]; B610, Table S3, 2 mM/L, read-out: Inhibition zone width (mm), not less) of no less than 3 mm and a zone of inhibition at 2000 µM ([2]; 36 h, 2 mM solutions, dependent on the test system used, read-out: inhibition zone width (mm), range over the test systems) of 2.5 to 4 mm. The “bactericidal activity” value ([2]; Table S2) was “moderate bactericidal activity”, the zone of inhibition at 2000 µM ([3]; average of 3 experiments, read-out: width of the inhibition zone (mm), P. atrosepticum) was 4 mm and the zone of inhibition at 2000 µM [3, 8] was no less than 4 mm. The zone of inhibition at 2000 µM ([4]; average of 3 experiments, read-out: width of the inhibition zone (mm), P. carotovorum subsp. carotovorum) was 3 mm, the zone of inhibition at 2000 µM [4, 8] was no less than 3 mm and the zone of inhibition at 2000 µM ([5]; average of 3 experiments, read-out: width of the inhibition zone (mm), Ps. fluorescens) was 2.5 mm. The zone of inhibition at 2000 µM [5, 8] was no less than 2 mm, the zone of inhibition at 2000 µM (Micrococcus luteus B-109; B109, 2 mM/L, average of 3 experiments, read-out: width of the inhibition zone (mm), M. luteus) was 4 mm and the zone of inhibition at 2000 µM (Micrococcus luteus B-109; B109, Table S3, 2 mM/L, read-out: Inhibition zone width (mm), not less) was no less than 4 mm. For the same compound, the inhibition of growth at 1 µM ([6]; 72 h, age of the fungus 3 days) was 18%, the inhibition of growth at 5 µM ([6]; 72 h, age of the fungus 3 days) was 27% and the inhibition of growth at 15 µM ([6]; 72 h, age of the fungus 3 days) was 30%. It also gave an inhibition of growth ([6]; 72 h, age of the fungus 3 days) of 33%, an inhibition of growth at 40 µM ([6]; 72 h, age of the fungus 3 days) of 44% and an EC50 ([6]; 120 h, day 5, read-out: EC50, µg/mL at Day 5, P. cactorum) of 18.2 µg/mL. The inhibition of growth at 1 µM [6, 9] was 26%, the inhibition of growth at 5 µM [6, 9] was 35% and the inhibition of growth at 15 µM [6, 9] was 38%. The inhibition of growth [6, 9] was 43%, the inhibition of growth at 40 µM [6, 9] was 50% and the inhibition of growth at 1 µM [6, 10] was 11%. It also gave an inhibition of growth at 5 µM [6, 10] of 24%, an inhibition of growth at 15 µM [6, 10] of 29% and an inhibition of growth [6, 10] of 31%. For the same compound, the inhibition of growth at 40 µM [6, 10] was 44%, the inhibition of growth at 1 µM [6, 11] was 6% and the inhibition of growth at 5 µM [6, 11] was 16%. For the same compound, the inhibition of growth at 15 µM [6, 11] was 19%, the inhibition of growth [6, 11] was 26% and the inhibition of growth at 40 µM [6, 11] was 39%. The inhibition of growth at 1 µM [7, 12] was 9%, the inhibition of growth at 5 µM [7, 12] was 33% and the inhibition of growth at 20 µM [7, 12] was 41%. The inhibition of growth at 40 µM [7, 12] was 53%, the EC50 ([7]; IBPPM543, 120 h, day 5, read-out: EC50, µg/mL at Day 5, F. oxysporum) was 14.8 µg/mL and the inhibition of growth at 1 µM [7, 13] was 10%. The inhibition of growth at 5 µM [7, 13] was 34%, the inhibition of growth at 20 µM [7, 13] was 42% and the inhibition of growth at 40 µM [7, 13] was 56%. It also gave an inhibition of growth at 1 µM [7, 14] of 9%, an inhibition of growth at 5 µM [7, 14] of 25% and an inhibition of growth at 20 µM [7, 14] of 34%. It also gave an inhibition of growth at 40 µM [7, 14] of 40%, an inhibition of growth at 1 µM [7, 15] of 0% and an inhibition of growth at 5 µM [7, 15] of 19%. For the same compound, the inhibition of growth at 20 µM [7, 15] was 28%, the inhibition of growth at 40 µM [7, 15] was 31% and the melting point was 152 to 153 °C.
